Tested on: swine adipose tissue
Test: Inhibition of lipogenesis (uptake of radioactive carbon from glucose-U^14 C into lipid) in swine adipose tissue slices
Assay type: cell-based
Conditions: 100 micrograms per milliliter, 37° C., 2 hours, 5% DMSO, with insulin, triplicate
From the text: The manner in which they cause this effect is not known with certainty; it is believed that they interfere with the synthesis of fatty acids in the tissues. Their effectiveness for this purpose has been ascertained by immersing samples of swine adipose tissue in a liquid medium containing radioactive glucose and the test chemical for a period of time, then isolating the lipid from the treated tissue and determining the up-take of the radioactive carbon by means of scintillation counting techniques. These tests were conducted in swine adipose tissue because in swine, the primary site of lipogenesis--i.e., fatty acid synthesis--appears to be adipose tissue.
Described in more detail, the tests were conducted according to the following general procedure.
150 milligrams of slices of swine adipose tissue were incubated at 37° C. for 2 hours with shaking in 3 milliliters of Krebs-Ringer bicarbonate solution containing one-half the normal calcium ion concentration, 60 micromoles of glucose, 0.5 micro-Curie of glucose-U^14 C, and 300 microunits of insulin, and 5% dimethyl sulfoxide (DMSO). The test compounds were added as a solution or suspension in DMSO and were present at a concentration of 100 micrograms per milliliter of the incubation mixture.
The incubation was terminated by addition of 0.25 milliliter of 1 N sulfuric acid. The resulting mixture was extracted with a total of 25 milliliters of chloroform:methanol (2:1, v/v). The extracts were washed according to Folch et al. (J. Biol. Chem., 226, 497-509, (1957)), air dried, and counted in a liquid scintillation counter with 15 milliliters of counting fluid (two parts toluene containing 0.4% w/v New England Nuclear Omnifluor: 1 part Triton X-100). The tests were conducted in triplicate and were accompanied by control tests in which all ingredients,proportions and conditions were the same except that no test compound was included. From the data obtained were calculated the percent inhibition of lipid synthesis by the test compound in each case. The data obtained from the tests are set out in Table 1, as the percent inhibition of lipogenesis compared to the results obtained in the control tests wherein only the test compound was omitted.

Structure (SMILES)	Percent Inhibition (of lipogenesis compared to control tests) [%]
C=CCNC(=O)C1CSc2cc(C(F)(F)F)ccc2O1 (centres unmarked) [Compound 4, 6-(Trifluoromethyl)-2,3-dihydro-N-(2-propenyl)-1,4-benzoxathiin-2-carboxamide]	30
C=CCNC(=O)C1CSc2cc(Cl)ccc2O1 (centres unmarked) [Compound 3, 6-Chloro-2,3-dihydro-N-(2-propenyl)-1,4-benzoxathiin-2-carboxamide]	54
C=CCNC(=O)C1CSc2ccc(C)cc2O1 (centres unmarked) [Compound 8, 2,3-Dihydro-7-methyl-N-(2-propenyl)-1,4-benzoxathiin-2-carboxamide]	26
C=CCNC(=O)C1CSc2ccccc2O1 (centres unmarked) [Compound 1, 2,3-Dihydro-N-(2-propenyl)-1,4-benzoxathiin-2-carboxamide]	63
C=CCNC(=O)C1CSc2cc([N+](=O)[O-])ccc2O1 (centres unmarked) [Compound 5, 6-Nitro-2,3-dihydro-N-(2-propenyl)-1,4-benzoxathiin-2-carboxamide]	45
C=CCNC(=O)C1CSc2cc(N)ccc2O1 (centres unmarked) [Compound 6, 6-Amino-2,3-dihydro-N-(2-propenyl)-1,4-benzoxathiin-2-carboxamide]	29
C=CCNC(=O)C1CSc2cc(C)ccc2O1 (centres unmarked) [Compound 2, 2,3-Dihydro-6-methyl-N-(2-propenyl)-1,4-benzoxathiin-2-carboxamide]	63
C=CCNC(=O)C1CSc2cc(NS(C)(=O)=O)ccc2O1 (centres unmarked) [Compound 7, 6-Methylsulfonamido-3,4-dihydro-N-(2-propenyl)-1,4-benzoxathiin-2-carboxamide]	46
